The supplement of paper PMC10307832

Assays:
Assay in all cases: relative viability (nuclei count vs DMSO), 5 days (fraction); higher = more cells survive
LOU-NH91 = test system: LOU-NH91
Summary of the method: (§1)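 Relative viability equals treated-well nuclei counts divided by vehicle-well nuclei counts. Counts came from 4× images of lung cancer cell lines grown in 1536-well plates for 5 days after pin-tool dosing on the day after seeding. Dosing used one drug alone or a fixed anchor-drug dose plus five library-drug doses (not always all listed) in √10 steps, and values are medians of duplicate plates.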

SW 900 = test system: SW 900
Summary of the method: as §1

NCI-H647 = test system: NCI-H647
Summary of the method: as §1

SK-LU-1 = test system: SK-LU-1
Summary of the method: as §1

LU99A = test system: LU99A
Summary of the method: as §1

LK-2 = test system: LK-2
Summary of the method: as §1

EKVX = test system: EKVX
Summary of the method: as §1

BEN = test system: BEN
Summary of the method: as §1

COR-L 105 = test system: COR-L 105
Summary of the method: as §1

EMC-BAC-2 = test system: EMC-BAC-2
Summary of the method: as §1

NCI-H1734 = test system: NCI-H1734
Summary of the method: as §1

NCI-H1437 = test system: NCI-H1437
Summary of the method: as §1

HCC-78 = test system: HCC-78
Summary of the method: as §1

NCI-H522 = test system: NCI-H522
Summary of the method: as §1

NCI-H2085 = test system: NCI-H2085
Summary of the method: as §1

NCI-H2023 = test system: NCI-H2023
Summary of the method: as §1

NCI-H358 = test system: NCI-H358
Summary of the method: as §1

UMC-11 = test system: UMC-11
Summary of the method: as §1

EPLC-272H = test system: EPLC-272H
Summary of the method: as §1

NCI-H1792 = test system: NCI-H1792
Summary of the method: as §1

NCI-H650 = test system: NCI-H650
Summary of the method: as §1

HCC-827 = test system: HCC-827
Summary of the method: as §1

NCI-H1650 = test system: NCI-H1650
Summary of the method: as §1

`C=C1C(=O)O[C@@H](CCCCCCCC)[C@@H]1C(=O)O` [C-75] + Cc1nc(Nc2ncc(C(=O)Nc3c(C)cccc3Cl)s2)cc(N2CCN(CCO)CC2)n1 [Dasatinib] (partner 0.075 µM) showed a relative viability (LOU-NH91; first compound 0.08 µM) of 0.605, a relative viability (LOU-NH91; first compound 0.253 µM) of 0.527 and a relative viability (LOU-NH91; first compound 0.8 µM) of 0.492. It also gave a relative viability (LOU-NH91; first compound 2.53 µM) of 0.414, a relative viability (LOU-NH91; first compound 8 µM) of 0.544 and a relative viability (SW 900; first compound 0.08 µM) of 0.531. It also gave a relative viability (SW 900; first compound 0.253 µM) of 0.796, a relative viability (SW 900; first compound 0.8 µM) of 0.829 and a relative viability (SW 900; first compound 2.53 µM) of 0.548. The relative viability (SW 900; first compound 8 µM) was 0.449, the relative viability (NCI-H647; first compound 0.08 µM) was 0.227 and the relative viability (NCI-H647; first compound 0.253 µM) was 0.114. For the same compound, the relative viability (NCI-H647; first compound 0.8 µM) was 0.172, the relative viability (NCI-H647; first compound 2.53 µM) was 0.143 and the relative viability (NCI-H647; first compound 8 µM) was 0.219. For the same compound, the relative viability (SK-LU-1; first compound 0.08 µM) was 0.168, the relative viability (SK-LU-1; first compound 0.253 µM) was 0.175 and the relative viability (SK-LU-1; first compound 0.8 µM) was 0.166. For the same compound, the relative viability (SK-LU-1; first compound 2.53 µM) was 0.127, the relative viability (SK-LU-1; first compound 8 µM) was 0.172 and the relative viability (LU99A; first compound 0.08 µM) was 0.597. The relative viability (LU99A; first compound 0.253 µM) was 0.558, the relative viability (LU99A; first compound 0.8 µM) was 0.549 and the relative viability (LU99A; first compound 2.53 µM) was 0.495. The relative viability (LU99A; first compound 8 µM) was 0.38, the relative viability (LK-2; first compound 0.08 µM) was 0.388 and the relative viability (LK-2; first compound 0.253 µM) was 0.433. For the same compound, the relative viability (LK-2; first compound 0.8 µM) was 0.309, the relative viability (LK-2; first compound 2.53 µM) was 0.237 and the relative viability (LK-2; first compound 8 µM) was 0.291. For the same compound, the relative viability (EKVX; first compound 0.08 µM) was 0.535, the relative viability (EKVX; first compound 0.253 µM) was 0.584 and the relative viability (EKVX; first compound 0.8 µM) was 0.564. The relative viability (EKVX; first compound 8 µM) was 0.481, the relative viability (BEN; first compound 0.08 µM) was 0.317 and the relative viability (BEN; first compound 0.253 µM) was 0.271. For the same compound, the relative viability (BEN; first compound 0.8 µM) was 0.326, the relative viability (BEN; first compound 8 µM) was 0.288 and the relative viability (COR-L 105; first compound 0.08 µM) was 0.401. The relative viability (COR-L 105; first compound 0.253 µM) was 0.243, the relative viability (COR-L 105; first compound 0.8 µM) was 0.358 and the relative viability (COR-L 105; first compound 2.53 µM) was 0.338. The relative viability (COR-L 105; first compound 8 µM) was 0.303, the relative viability (EMC-BAC-2; first compound 0.08 µM) was 0.37 and the relative viability (EMC-BAC-2; first compound 0.253 µM) was 0.313. The relative viability (EMC-BAC-2; first compound 0.8 µM) was 0.283, the relative viability (EMC-BAC-2; first compound 2.53 µM) was 0.261 and the relative viability (EMC-BAC-2; first compound 8 µM) was 0.276. The relative viability (NCI-H1734; first compound 0.08 µM) was 0.525, the relative viability (NCI-H1734; first compound 0.253 µM) was 0.415 and the relative viability (NCI-H1734; first compound 0.8 µM) was 0.465. The relative viability (NCI-H1734; first compound 2.53 µM) was 0.351, the relative viability (NCI-H1734; first compound 8 µM) was 0.337 and the relative viability (NCI-H1437; first compound 0.08 µM) was 0.4. The relative viability (NCI-H1437; first compound 0.253 µM) was 0.381, the relative viability (NCI-H1437; first compound 0.8 µM) was 0.367 and the relative viability (NCI-H1437; first compound 2.53 µM) was 0.298. For the same compound, the relative viability (NCI-H1437; first compound 8 µM) was 0.458, the relative viability (HCC-78; first compound 0.08 µM) was 0.418 and the relative viability (HCC-78; first compound 0.253 µM) was 0.469. The relative viability (HCC-78; first compound 0.8 µM) was 0.341, the relative viability (HCC-78; first compound 2.53 µM) was 0.274 and the relative viability (HCC-78; first compound 8 µM) was 0.347. It also gave a relative viability (NCI-H522; first compound 0.08 µM) of 0.867, a relative viability (NCI-H522; first compound 0.253 µM) of 0.849 and a relative viability (NCI-H522; first compound 0.8 µM) of 0.784. For the same compound, the relative viability (NCI-H522; first compound 8 µM) was 0.906, the relative viability (NCI-H2085; first compound 0.08 µM) was 0.264 and the relative viability (NCI-H2085; first compound 0.253 µM) was 0.309. For the same compound, the relative viability (NCI-H2085; first compound 0.8 µM) was 0.284, the relative viability (NCI-H2085; first compound 2.53 µM) was 0.266 and the relative viability (NCI-H2085; first compound 8 µM) was 0.259. For the same compound, the relative viability (NCI-H2023; first compound 0.08 µM) was 0.639, the relative viability (NCI-H2023; first compound 0.253 µM) was 0.471 and the relative viability (NCI-H2023; first compound 0.8 µM) was 0.458. The relative viability (NCI-H2023; first compound 2.53 µM) was 0.425, the relative viability (NCI-H2023; first compound 8 µM) was 0.472 and the relative viability (NCI-H358; first compound 0.08 µM) was 0.181. It also gave a relative viability (NCI-H358; first compound 0.253 µM) of 0.13, a relative viability (NCI-H358; first compound 0.8 µM) of 0.157 and a relative viability (NCI-H358; first compound 2.53 µM) of 0.151. For the same compound, the relative viability (NCI-H358; first compound 8 µM) was 0.143, the relative viability (UMC-11; first compound 0.08 µM) was 0.43 and the relative viability (UMC-11; first compound 0.253 µM) was 0.547. The relative viability (UMC-11; first compound 0.8 µM) was 0.389, the relative viability (UMC-11; first compound 2.53 µM) was 0.433 and the relative viability (UMC-11; first compound 8 µM) was 0.376. The relative viability (EPLC-272H; first compound 0.08 µM) was 0.412, the relative viability (EPLC-272H; first compound 0.253 µM) was 0.292 and the relative viability (EPLC-272H; first compound 0.8 µM) was 0.351. The relative viability (EPLC-272H; first compound 2.53 µM) was 0.33, the relative viability (EPLC-272H; first compound 8 µM) was 0.381 and the relative viability (NCI-H1792; first compound 0.08 µM) was 0.788. It also gave a relative viability (NCI-H1792; first compound 0.253 µM) of 0.623, a relative viability (NCI-H1792; first compound 0.8 µM) of 0.724 and a relative viability (NCI-H1792; first compound 2.53 µM) of 0.503. It also gave a relative viability (NCI-H1792; first compound 8 µM) of 0.692, a relative viability (NCI-H650; first compound 0.08 µM) of 0.469 and a relative viability (NCI-H650; first compound 0.253 µM) of 0.328. For the same compound, the relative viability (NCI-H650; first compound 0.8 µM) was 0.383, the relative viability (NCI-H650; first compound 2.53 µM) was 0.358 and the relative viability (NCI-H650; first compound 8 µM) was 0.398. The relative viability (HCC-827; first compound 0.08 µM) was 0.28, the relative viability (HCC-827; first compound 0.253 µM) was 0.356 and the relative viability (HCC-827; first compound 0.8 µM) was 0.301. It also gave a relative viability (HCC-827; first compound 2.53 µM) of 0.221, a relative viability (HCC-827; first compound 8 µM) of 0.347 and a relative viability (NCI-H1650; first compound 0.08 µM) of 0.334. For the same compound, the relative viability (NCI-H1650; first compound 0.253 µM) was 0.359, the relative viability (NCI-H1650; first compound 2.53 µM) was 0.31 and the relative viability (NCI-H1650; first compound 8 µM) was 0.305.
